In the NIST ThermoML archive (doi:10.1021/je3003578):
± gives the expanded uncertainty stated by the source.

How the values were obtained:
[1] = 101 kPa, Liquid
[2] = xn = mol fraction of the nth substance listed; details: 283.15 K; 101 kPa; Liquid; x2 = 0

Row | Structure (SMILES) | mass density ([1]; 283.15 K) | mass density ([1]; 288.15 K) | mass density ([1]; 293.15 K) | mass density ([1]; 298.15 K) | mass density ([1]; 303.15 K) | mass density [2]
1 | CCOCCCN [3-ethoxy-1-propanamine] | 865.36 ± 0.82 kg/m3 | 860.63 ± 0.83 kg/m3 | 855.715 ± 0.84 kg/m3 | 851.018 ± 0.86 kg/m3 | 846.075 ± 0.87 kg/m3 | 
2 | O [water] + CCOCCCN |  |  |  |  |  | 999.699 ± 0.3 kg/m3
